PMC9329436, “Optimization of the 4-anilinoquin(az)oline scaffold as epidermal growth factor receptor (EGFR) inhibitors for chordoma utilizing a toxicology profiling assay platform” (Scientific Reports, 2022)
Like-named read-outs stand apart in the source and are kept apart here.

Key:
Format in all cases: biochemical
[1] = target: 320 wild-type protein kinases (Homo sapiens, UniProt P53671); details: singlicate
Excerpt: (§1) Table S4. Profiling of two compounds at two concentrations against 320 wild-type protein kinases; singlicate measurement; Residual activities (% of control).

[2] = target: 320 wild-type protein kinases (Homo sapiens, UniProt P35916); details: kinase VEGF-R3, singlicate
Sequence of 320 wild-type protein kinases (Homo sapiens, UniProt P35916) (P35916 25-1363): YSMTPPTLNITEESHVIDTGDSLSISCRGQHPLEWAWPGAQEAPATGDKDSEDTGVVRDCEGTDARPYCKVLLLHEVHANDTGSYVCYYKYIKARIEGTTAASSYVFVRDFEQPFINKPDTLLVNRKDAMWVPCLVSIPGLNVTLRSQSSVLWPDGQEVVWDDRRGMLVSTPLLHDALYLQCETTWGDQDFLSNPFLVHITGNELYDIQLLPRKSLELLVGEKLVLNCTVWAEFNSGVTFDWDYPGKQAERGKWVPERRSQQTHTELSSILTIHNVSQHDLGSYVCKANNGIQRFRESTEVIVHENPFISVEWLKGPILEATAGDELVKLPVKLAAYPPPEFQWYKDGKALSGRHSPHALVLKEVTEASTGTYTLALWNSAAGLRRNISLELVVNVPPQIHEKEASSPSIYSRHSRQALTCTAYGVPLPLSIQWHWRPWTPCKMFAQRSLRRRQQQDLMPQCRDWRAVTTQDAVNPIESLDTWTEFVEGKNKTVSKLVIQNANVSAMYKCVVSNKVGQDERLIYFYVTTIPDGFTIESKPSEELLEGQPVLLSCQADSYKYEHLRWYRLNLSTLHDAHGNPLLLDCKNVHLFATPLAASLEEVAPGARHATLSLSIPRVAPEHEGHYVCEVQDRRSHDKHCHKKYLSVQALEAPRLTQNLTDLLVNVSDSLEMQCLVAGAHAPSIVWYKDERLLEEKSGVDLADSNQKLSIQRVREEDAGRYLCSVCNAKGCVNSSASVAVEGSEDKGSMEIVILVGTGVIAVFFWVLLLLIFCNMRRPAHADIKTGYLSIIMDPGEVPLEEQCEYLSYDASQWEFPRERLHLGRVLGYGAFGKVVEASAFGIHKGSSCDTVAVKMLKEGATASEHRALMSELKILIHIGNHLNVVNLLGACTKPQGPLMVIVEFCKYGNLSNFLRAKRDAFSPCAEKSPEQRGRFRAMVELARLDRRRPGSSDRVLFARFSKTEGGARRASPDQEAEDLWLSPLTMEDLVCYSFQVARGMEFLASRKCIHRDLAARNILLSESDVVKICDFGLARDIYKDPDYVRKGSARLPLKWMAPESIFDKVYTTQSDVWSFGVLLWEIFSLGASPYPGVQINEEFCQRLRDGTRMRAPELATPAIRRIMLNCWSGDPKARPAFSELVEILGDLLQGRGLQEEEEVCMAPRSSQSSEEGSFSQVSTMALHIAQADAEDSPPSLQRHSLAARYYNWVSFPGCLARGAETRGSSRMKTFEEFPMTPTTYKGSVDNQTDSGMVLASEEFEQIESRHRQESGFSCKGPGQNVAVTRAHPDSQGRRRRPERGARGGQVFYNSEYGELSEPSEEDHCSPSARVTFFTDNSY
Excerpt: as §1

[3] = target: T1, 320 wild-type protein kinases (Homo sapiens, UniProt P51956); details: singlicate
T1 sequence (P51956 1-506): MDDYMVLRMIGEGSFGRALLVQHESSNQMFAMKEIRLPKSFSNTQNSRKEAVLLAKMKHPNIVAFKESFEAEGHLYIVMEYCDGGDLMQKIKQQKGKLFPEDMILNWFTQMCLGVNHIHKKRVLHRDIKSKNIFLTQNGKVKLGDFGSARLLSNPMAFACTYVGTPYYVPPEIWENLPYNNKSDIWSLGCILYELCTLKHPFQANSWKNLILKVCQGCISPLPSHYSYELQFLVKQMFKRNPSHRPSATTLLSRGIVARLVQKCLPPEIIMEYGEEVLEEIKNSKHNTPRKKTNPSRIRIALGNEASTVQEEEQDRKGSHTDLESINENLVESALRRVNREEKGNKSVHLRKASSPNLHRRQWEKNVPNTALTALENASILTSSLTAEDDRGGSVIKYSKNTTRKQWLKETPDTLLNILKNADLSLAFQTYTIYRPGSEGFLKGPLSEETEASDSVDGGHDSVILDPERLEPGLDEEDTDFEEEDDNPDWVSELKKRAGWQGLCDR
Excerpt: as §1

[4] = target: T2, 320 wild-type protein kinases (Homo sapiens, UniProt Q99640); details: singlicate
T2 sequence (Q99640 1-499): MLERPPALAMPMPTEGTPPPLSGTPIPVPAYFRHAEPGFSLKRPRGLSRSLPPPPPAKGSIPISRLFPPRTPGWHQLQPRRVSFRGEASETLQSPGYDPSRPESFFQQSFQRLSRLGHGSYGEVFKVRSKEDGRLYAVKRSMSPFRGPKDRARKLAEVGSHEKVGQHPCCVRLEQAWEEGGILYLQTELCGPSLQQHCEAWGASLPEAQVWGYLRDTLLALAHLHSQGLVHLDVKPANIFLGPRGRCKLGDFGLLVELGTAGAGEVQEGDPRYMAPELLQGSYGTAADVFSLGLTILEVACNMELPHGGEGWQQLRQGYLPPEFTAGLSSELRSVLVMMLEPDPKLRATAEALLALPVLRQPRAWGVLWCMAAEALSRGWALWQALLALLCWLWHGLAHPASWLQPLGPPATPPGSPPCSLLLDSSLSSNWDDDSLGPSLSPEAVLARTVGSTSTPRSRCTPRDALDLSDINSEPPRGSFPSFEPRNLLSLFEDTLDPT
Excerpt: as §1

[5] = target: T3, 320 wild-type protein kinases (Homo sapiens, UniProt P42680); details: kinase TEC, singlicate
T3 sequence (P42680 1-631): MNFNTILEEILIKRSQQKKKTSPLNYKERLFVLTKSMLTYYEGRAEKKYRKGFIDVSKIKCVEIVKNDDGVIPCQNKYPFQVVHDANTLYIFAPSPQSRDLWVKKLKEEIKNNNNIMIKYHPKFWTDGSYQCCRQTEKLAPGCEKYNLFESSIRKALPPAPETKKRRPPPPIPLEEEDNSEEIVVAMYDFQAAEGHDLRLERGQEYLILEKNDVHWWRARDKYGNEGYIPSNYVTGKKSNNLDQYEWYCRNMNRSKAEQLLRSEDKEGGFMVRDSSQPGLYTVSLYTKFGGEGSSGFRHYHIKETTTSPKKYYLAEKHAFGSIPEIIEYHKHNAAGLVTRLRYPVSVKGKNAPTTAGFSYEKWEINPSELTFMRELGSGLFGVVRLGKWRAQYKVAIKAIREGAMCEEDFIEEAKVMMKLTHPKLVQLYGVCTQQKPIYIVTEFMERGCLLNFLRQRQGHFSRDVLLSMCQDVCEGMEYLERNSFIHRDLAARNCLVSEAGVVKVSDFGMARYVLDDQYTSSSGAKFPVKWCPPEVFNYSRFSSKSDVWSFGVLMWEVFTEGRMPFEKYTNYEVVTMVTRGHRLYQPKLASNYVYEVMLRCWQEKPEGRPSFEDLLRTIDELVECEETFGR
Excerpt: as §1

[6] = target: 320 wild-type protein kinases (Homo sapiens, UniProt P06241); details: FYN, singlicate
Sequence of 320 wild-type protein kinases (Homo sapiens, UniProt P06241) (P06241 whole entry): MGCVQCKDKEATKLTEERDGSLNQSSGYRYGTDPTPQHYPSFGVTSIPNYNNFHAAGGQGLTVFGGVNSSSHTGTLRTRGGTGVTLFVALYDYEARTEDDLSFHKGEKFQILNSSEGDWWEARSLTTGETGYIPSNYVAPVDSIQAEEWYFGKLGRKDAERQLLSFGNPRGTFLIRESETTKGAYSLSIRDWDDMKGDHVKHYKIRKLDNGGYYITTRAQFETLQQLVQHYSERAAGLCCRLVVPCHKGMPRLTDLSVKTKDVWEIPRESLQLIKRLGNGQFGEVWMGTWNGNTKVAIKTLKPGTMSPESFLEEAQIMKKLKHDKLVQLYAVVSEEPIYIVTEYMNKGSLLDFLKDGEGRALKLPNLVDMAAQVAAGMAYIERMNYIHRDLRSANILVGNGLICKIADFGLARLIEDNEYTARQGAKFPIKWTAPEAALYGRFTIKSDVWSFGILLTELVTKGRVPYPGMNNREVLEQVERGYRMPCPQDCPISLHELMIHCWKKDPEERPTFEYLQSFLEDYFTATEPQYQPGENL
Excerpt: as §1

[7] = target: 320 wild-type protein kinases (Homo sapiens, UniProt Q9P286); details: singlicate
Sequence of 320 wild-type protein kinases (Homo sapiens, UniProt Q9P286) (Q9P286 whole entry): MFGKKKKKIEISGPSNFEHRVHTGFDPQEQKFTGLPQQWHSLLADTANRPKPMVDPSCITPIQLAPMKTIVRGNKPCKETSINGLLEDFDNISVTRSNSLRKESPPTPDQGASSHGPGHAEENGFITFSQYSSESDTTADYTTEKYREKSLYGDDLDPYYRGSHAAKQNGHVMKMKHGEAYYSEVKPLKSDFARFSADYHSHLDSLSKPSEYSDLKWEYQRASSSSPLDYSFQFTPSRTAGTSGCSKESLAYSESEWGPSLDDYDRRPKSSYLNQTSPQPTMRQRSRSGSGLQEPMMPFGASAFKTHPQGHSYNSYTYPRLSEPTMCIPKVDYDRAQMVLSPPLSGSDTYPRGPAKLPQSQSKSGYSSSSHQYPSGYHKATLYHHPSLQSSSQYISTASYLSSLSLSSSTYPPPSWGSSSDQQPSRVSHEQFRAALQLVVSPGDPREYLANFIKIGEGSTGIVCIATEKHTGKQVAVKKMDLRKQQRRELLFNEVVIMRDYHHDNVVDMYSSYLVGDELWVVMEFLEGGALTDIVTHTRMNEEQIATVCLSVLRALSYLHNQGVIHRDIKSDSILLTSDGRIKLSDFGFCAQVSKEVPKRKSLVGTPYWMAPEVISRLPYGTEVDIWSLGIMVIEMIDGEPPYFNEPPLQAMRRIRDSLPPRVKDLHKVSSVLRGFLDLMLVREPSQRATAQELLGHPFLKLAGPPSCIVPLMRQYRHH
Excerpt: as §1

[8] = target: T4, 320 wild-type protein kinases (Homo sapiens, UniProt P45985); details: singlicate
T4 sequence (P45985 1-399): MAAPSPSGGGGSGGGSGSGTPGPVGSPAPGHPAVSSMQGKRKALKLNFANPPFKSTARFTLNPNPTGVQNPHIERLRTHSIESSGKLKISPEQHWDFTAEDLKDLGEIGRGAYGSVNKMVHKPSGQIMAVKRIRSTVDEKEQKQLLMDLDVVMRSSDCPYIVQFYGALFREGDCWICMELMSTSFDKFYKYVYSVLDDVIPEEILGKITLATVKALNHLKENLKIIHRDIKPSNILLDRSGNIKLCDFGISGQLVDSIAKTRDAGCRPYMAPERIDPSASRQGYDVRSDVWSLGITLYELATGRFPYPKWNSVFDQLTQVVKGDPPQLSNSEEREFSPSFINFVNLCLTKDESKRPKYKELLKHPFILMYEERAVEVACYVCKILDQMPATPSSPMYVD
Excerpt: as §1

[9] = target: 320 wild-type protein kinases (Homo sapiens, UniProt Q02763); details: kinase TIE2, singlicate
Sequence of 320 wild-type protein kinases (Homo sapiens, UniProt Q02763) (Q02763 23-1124): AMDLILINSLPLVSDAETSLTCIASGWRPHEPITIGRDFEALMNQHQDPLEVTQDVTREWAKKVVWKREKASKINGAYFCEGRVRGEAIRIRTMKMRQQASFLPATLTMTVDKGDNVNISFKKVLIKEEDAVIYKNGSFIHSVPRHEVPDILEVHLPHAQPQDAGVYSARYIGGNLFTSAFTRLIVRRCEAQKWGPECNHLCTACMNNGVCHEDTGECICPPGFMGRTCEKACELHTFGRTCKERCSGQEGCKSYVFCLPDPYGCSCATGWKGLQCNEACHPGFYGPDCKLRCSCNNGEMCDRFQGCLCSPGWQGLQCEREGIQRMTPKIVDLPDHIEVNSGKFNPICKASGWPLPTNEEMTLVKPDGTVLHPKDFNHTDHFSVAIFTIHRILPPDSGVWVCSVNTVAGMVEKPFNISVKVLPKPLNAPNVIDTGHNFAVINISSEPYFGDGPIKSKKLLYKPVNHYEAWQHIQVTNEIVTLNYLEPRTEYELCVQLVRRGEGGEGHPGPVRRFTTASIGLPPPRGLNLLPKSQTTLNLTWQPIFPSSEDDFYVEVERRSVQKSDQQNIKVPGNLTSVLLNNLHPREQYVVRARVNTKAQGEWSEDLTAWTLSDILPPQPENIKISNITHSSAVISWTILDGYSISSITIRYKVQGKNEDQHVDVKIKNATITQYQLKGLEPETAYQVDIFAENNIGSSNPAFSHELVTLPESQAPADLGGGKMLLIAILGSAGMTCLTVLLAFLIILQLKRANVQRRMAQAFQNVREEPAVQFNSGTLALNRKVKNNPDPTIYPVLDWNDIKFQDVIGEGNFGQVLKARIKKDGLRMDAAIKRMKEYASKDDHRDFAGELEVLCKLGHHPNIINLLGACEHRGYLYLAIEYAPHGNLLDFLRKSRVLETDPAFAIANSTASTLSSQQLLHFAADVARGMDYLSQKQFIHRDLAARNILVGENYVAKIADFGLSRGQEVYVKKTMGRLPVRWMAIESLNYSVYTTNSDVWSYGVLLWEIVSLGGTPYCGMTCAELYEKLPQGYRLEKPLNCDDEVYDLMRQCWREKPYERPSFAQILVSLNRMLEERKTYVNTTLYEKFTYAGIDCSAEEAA
Excerpt: as §1

Sequence of 320 wild-type protein kinases (Homo sapiens, UniProt P53671) (P53671 whole entry): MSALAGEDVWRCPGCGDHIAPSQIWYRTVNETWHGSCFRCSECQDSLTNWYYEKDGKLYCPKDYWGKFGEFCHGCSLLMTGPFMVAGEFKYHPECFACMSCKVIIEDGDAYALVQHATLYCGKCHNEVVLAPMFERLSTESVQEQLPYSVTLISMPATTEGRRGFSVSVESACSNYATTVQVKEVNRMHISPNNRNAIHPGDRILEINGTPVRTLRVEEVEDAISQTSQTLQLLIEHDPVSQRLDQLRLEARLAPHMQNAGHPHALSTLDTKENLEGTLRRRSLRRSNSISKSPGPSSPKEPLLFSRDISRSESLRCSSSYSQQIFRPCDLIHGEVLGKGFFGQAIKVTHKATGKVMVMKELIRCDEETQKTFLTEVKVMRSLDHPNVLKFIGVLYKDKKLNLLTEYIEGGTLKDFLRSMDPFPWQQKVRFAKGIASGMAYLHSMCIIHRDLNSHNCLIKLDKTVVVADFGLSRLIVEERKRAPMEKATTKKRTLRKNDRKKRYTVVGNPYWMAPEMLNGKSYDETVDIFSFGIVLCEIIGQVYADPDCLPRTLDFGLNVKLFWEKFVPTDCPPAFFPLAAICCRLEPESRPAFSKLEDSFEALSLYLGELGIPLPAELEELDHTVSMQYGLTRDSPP

| SMILES | Residual activity ([1]; LIMK2, 1.0E-06 M) | Residual activity ([1]; LIMK2, 1.0E-07 M) | Residual activity, VEGF-R3 ([2]; assay conc. 1.0E-06 M) | Residual activity, VEGF-R3 ([2]; assay conc. 1.0E-07 M) | Residual activity ([3]; NEK3, 1.0E-06 M) | Residual activity ([3]; NEK3, 1.0E-07 M) | Residual activity ([4]; PKMYT1, 1.0E-06 M) | Residual activity ([4]; PKMYT1, 1.0E-07 M) | Residual activity, TEC ([5]; assay conc. 1.0E-06 M) | Residual activity, TEC ([5]; assay conc. 1.0E-07 M) | Residual activity ([6]; 1.0E-06 M) | Residual activity ([6]; 1.0E-07 M) | Residual activity ([7]; PAK7, 1.0E-06 M) | Residual activity ([7]; PAK7, 1.0E-07 M) | Residual activity ([8]; MKK4, 1.0E-06 M) | Residual activity ([8]; MKK4, 1.0E-07 M) | Residual activity, TIE2 ([9]; assay conc. 1.0E-06 M) | Residual activity, TIE2 ([9]; assay conc. 1.0E-07 M) |
| --- | --- | --- | --- | --- | --- | --- | --- | --- | --- | --- | --- | --- | --- | --- | --- | --- | --- | --- |
| C#Cc1cc(Nc2ncnc3cc(I)ccc23)ccc1Cl [Compound 41] | 100 % of control | 92 % of control | 119 % of control | 121 % of control | 103 % of control | 110 % of control | 79 % of control | 88 % of control | 90 % of control | 96 % of control | 101 % of control | 107 % of control | 81 % of control | 108 % of control | 93 % of control | 87 % of control | 87 % of control | 84 % of control |
| C#Cc1cc(Nc2ncnc3cc(OC)c(OC)cc23)ccc1Cl [Compound 45] | 89 % of control | 94 % of control | 112 % of control | 120 % of control | 113 % of control | 101 % of control | 95 % of control | 114 % of control | 92 % of control | 108 % of control | 76 % of control | 110 % of control | 91 % of control | 99 % of control | 96 % of control | 88 % of control | 82 % of control | 111 % of control |
